Source: patent publication US20210171589A1, “TRUNCATED CARTILAGE-HOMING PEPTIDES AND PEPTIDE COMPLEXES AND METHODS OF USE THEREOF” (BLAZE BIOSCIENCE, INC., priority 2018, published 2021)
Bridge positions count the residues as written; N and C are the ends. Peptide text beside a SMILES is read from it.

Tests used:
[1] = test system: cartilage (intervertebral discs, knee joints); assay: Whole body autoradiography of radiolabeled cartilage homing peptides; type: in vivo, Female Harlan athymic nude mice; conditions: for Signal of folded knotted peptide as compared to the linearized peptide of SEQ ID NO: 218: TABLE 8 versus TABLE 9; for Homing of radiolabeled peptide to cartilage: mice, 100 nmol via tail vein injection, 5 minutes to 48 hours
Description: This example illustrates peptide homing to cartilage mice 5 minutes to 48 hours after administration of a radiolabeled peptide. Signal from the radiolabeled peptides was found in all types of cartilage at each time point examined. Each peptide was radiolabeled by methylating […] as described in EXAMPLE 2. As such, the peptide may contain methyl or dimethyl lysines and a methylated or dimethlyated amino terminus. A dose of 100 nmol radiolabeled peptide was administered via tail vein injection in Female Harlan athymic nude mice, weighing 20-25 g. The experiment was done in duplicate (n=2 animals per group). Each radiolabeled peptide was allowed to freely circulate within the animal for the described time period before the animals were euthanized and sectioned.
Whole body autoradiography (WBA) sagittal sectioning was performed as follows. At the end of the dosing period, mice were frozen in a hexane/dry ice bath and then embedded in a frozen block of carboxymethylcellulose. […] Sections were allowed to dessicate in a freezer prior to imaging. For the autoradiography imaging, tape mounted thin sections were freeze dried and radioactive samples were exposed to phosphoimager plates. These plates were developed and the signal (densitometry) from each organ was normalized to the signal found in the cardiac blood of each animal. A signal in tissue darker than the signal expected from blood in that tissue indicates accumulation in a region, tissue, structure, or cell.

[2] = Stability testing of peptide in solution, RP-HPLC; type: physicochemical; conditions: 5 mg/mL in 50 mM Tris, 5% Mannitol, pH 7.6
Description: This example describes stability testing of peptides of the present disclosure. A 5 mg/mL solution of SEQ ID NO: 149 (also disclosed as SEQ ID NO: 46; non-GS version of SEQ ID NO: 149/SEQ ID NO: 46 are shown in SEQ ID NO: 128 and SEQ ID NO: 205) was prepared in 50 mM Tris, 5% Mannitol, pH 7.6. The stability of SEQ ID NO: 149 in solution was assessed by stressing the sample at 40° C. for 10 days and analyzed by RP-HPLC side-by-side with an unstressed sample prepared under the same conditions and stored at −20° C. […] This change was predominantly the result of an increase in area of one predominant impurity peak eluting after the main peak in the sample that was exposed to the higher temperature. No other impurities present in the initial sample increased substantially and no substantial new impurities were seen.

[3] = test system: cartilage (intervertebral discs, knee joints); assay: Whole body autoradiography of radiolabeled cartilage homing peptides; type: in vivo, Female Harlan athymic nude mice
cartilage = assay: Peptide homing with kidney ligation (autoradiography); type: in vivo, Female Harlan athymic nude mice; conditions: mice with ligated kidneys, 50-100 nmol via tail vein injection
Description: This example describes a dosing scheme for administering peptides to mice in conjunction with kidney ligation. Different dosages of the peptides of SEQ ID NO:149 and SEQ ID NO:150 were administered to Female Harlan athymic nude mice, weighing 20 g-25 g, via tail vein injection (n=2 mice per peptide). The experiment was done in duplicates. The kidneys were ligated to prevent renal filtration of the peptides. Each peptide was radiolabeled by methylating lysines and the N-terminus, so the actual binding agent may contain methyl or dimethyl lysine(s) and a methylated or dimethylated amino terminus.
A target dosage of 50-100 nmol of each peptide carrying 10-25 uCi of ^14C was administered to Female Harlan athymic nude mice while anesthetized. Each peptide was allowed to freely circulate within the animal before the animals were euthanized and sectioned.
This example illustrates peptide homing to cartilage of mice with kidneys that were ligated prior to peptide administration. At the end of the dosing period in EXAMPLE 4, mice were frozen in a hexane/dry ice bath and then frozen in a block of carboxymethylcellulose. […]

cartilage and kidneys = assay: Peptide homing with intact kidneys (autoradiography); type: in vivo, Female Harlan athymic nude mice
Description: Additionally, the peptide can be retained in cartilage for hours after treatment. The SEQ ID NO: 150 peptide was radiolabeled as in EXAMPLE 4 and 100 nmol of peptide was injected into a mouse with intact kidneys.
This example describes a dosing scheme for administering peptides to mice without kidney ligation. The peptide administered had the sequence of SEQ ID NO: 150. The peptide was radiolabeled by methylating lysines and the N-terminus, so the actual binding agent may contain methyl or dimethyl lysine(s) and a methylated or dimethylated amino terminus.
A target dosage of 100 nmol of each peptide carrying 10-25 μCi of ^14C was administered to Female Harlan athymic nude mice by a tail vein injection. Each peptide was allowed to freely circulate within the animal for either 4 hours or 24 hours before the animals were euthanized and sectioned.
This example illustrates peptide homing to cartilage in animals with intact kidneys. At the end of the 4 hour or 24 hour dosing periods in EXAMPLE 6, mice were frozen in a hexane/dry ice bath and then frozen in a block of carboxymethylcellulose. […]

GSGVPINVRCRGSRDCLDPCRRAGMRFGRCINSRCHCTP [SEQ ID NO: 149]
Signal of folded knotted peptide as compared to the linearized peptide of SEQ ID NO: 218 ([1]; at 3 hours): ~20 fold
Signal of folded knotted peptide as compared to the linearized peptide of SEQ ID NO: 218 ([1]; at 24 hours): ~50 fold
Signal of radiolabeled peptide in IVD as a Percentage of Blood ([1]; intervertebral discs, 0.08 hours after 100 nmol via tail vein injection): 164 Percentage of Blood
Signal of radiolabeled peptide in IVD as a Percentage of Blood ([1]; intervertebral discs, 0.5 hours after 100 nmol via tail vein injection): 369 Percentage of Blood
Signal of radiolabeled peptide in IVD as a Percentage of Blood ([1]; intervertebral discs, 1 hour after 100 nmol via tail vein injection): 961 Percentage of Blood
Signal of radiolabeled peptide in IVD as a Percentage of Blood ([1]; intervertebral discs, 3 hours after 100 nmol via tail vein injection): 3213 Percentage of Blood
Signal of radiolabeled peptide in IVD as a Percentage of Blood ([1]; intervertebral discs, 8 hours after 100 nmol via tail vein injection): 3777 Percentage of Blood
Signal of radiolabeled peptide in IVD as a Percentage of Blood ([1]; intervertebral discs, 24 hours after 100 nmol via tail vein injection): 5391 Percentage of Blood
Signal of radiolabeled peptide in IVD as a Percentage of Blood ([1]; intervertebral discs, 48 hours after 100 nmol via tail vein injection): 3320 Percentage of Blood
Signal of radiolabeled peptide in Knee Joints as a Percentage of Blood ([1]; 0.08 hours after 100 nmol via tail vein injection): 404 Percentage of Blood
Signal of radiolabeled peptide in Knee Joints as a Percentage of Blood ([1]; 0.5 hours after 100 nmol via tail vein injection): 510 Percentage of Blood
Signal of radiolabeled peptide in Knee Joints as a Percentage of Blood ([1]; 1 hour after 100 nmol via tail vein injection): 1114 Percentage of Blood
Signal of radiolabeled peptide in Knee Joints as a Percentage of Blood ([1]; 3 hours after 100 nmol via tail vein injection): 4059 Percentage of Blood
Signal of radiolabeled peptide in Knee Joints as a Percentage of Blood ([1]; 8 hours after 100 nmol via tail vein injection): 4990 Percentage of Blood
Signal of radiolabeled peptide in Knee Joints as a Percentage of Blood ([1]; 24 hours after 100 nmol via tail vein injection): 2137 Percentage of Blood
Signal of radiolabeled peptide in Knee Joints as a Percentage of Blood ([1]; 48 hours after 100 nmol via tail vein injection): 843 Percentage of Blood
Homing of radiolabeled peptide to cartilage [1]: homed to and accumulated in the cartilage
Purity by RP-HPLC of stressed sample ([2]; 40° C. for 10 days): 93.5%
Visual inspection of the samples (solubility, precipitation) ([2]; 40° C. for 10 days versus −20° C.): no change in solubility
Initial purity by RP-HPLC (non-stressed sample) ([2]; stored at −20° C.): 96.4%

GSGVPINVRSRGSRDSLDPSRRAGMRFGRSINSRSHSTP [SEQ ID NO: 218, reference compound]
Signal of radiolabeled peptide in IVD as a Percentage of Blood ([3]; 3 hr, Ligated Kidneys): 117 Percentage of Blood
Signal of radiolabeled peptide in IVD as a Percentage of Blood ([3]; 24 hr, Intact Kidneys): 104 Percentage of Blood
Signal of radiolabeled peptide in IVD as a Percentage of Blood ([1]; 3 hr, Intact Kidneys): 177 Percentage of Blood
Homing of radiolabeled peptide to cartilage [1]: homed to cartilage to a much lesser extent

CC[C@H](C)[C@@H]1NC(=O)[C@@H]2CSSC[C@H](NC(=O)[C@H](CCCCN)NC(=O)[C@@H](NC(=O)[C@H](CC(N)=O)NC(=O)[C@@H](NC(=O)[C@@H]3CCCN3C(=O)[C@@H](NC(=O)CNC(=O)[C@H](CO)NC(=O)CN)C(C)C)[C@@H](C)CC)C(C)C)C(=O)N[C@@H](CCCNC(=N)N)C(=O)NCC(=O)N[C@@H](CO)C(=O)N[C@@H](CCCNC(=N)N)C(=O)N[C@@H](CC(=O)O)C(=O)N[C@H]3CSSC[C@H](NC(=O)[C@H](CCCCN)NC(=O)[C@H](CO)NC(=O)[C@H](CC(N)=O)NC1=O)C(=O)N[C@@H](Cc1c[nH]cn1)C(=O)N[C@H](C(=O)N[C@H](C(=O)N1CCC[C@H]1C(=O)O)[C@@H](C)O)CSSC[C@H](NC(=O)[C@@H]1CCCN1C(=O)[C@H](CC(=O)O)NC(=O)[C@H](CC(C)C)NC3=O)C(=O)N[C@@H](CCCCN)C(=O)N[C@@H](CCCCN)C(=O)N[C@@H](C)C(=O)NCC(=O)N[C@@H](CCSC)C(=O)N[C@@H](CCCNC(=N)N)C(=O)N[C@@H](Cc1ccccc1)C(=O)NCC(=O)N[C@@H](CCCCN)C(=O)N2 [SEQ ID NO: 150] (H-GSGVPINVKCRGSRDCLDPCKKAGMRFGKCINSKCHCTP-OH; disulfide 10-30, 16-35, 20-37; N-terminus and C-terminus assumed)
Peptide distribution (14C signal) (cartilage): distribution in joint and other cartilage
Peptide distribution (14C signal) (cartilage and kidneys; mice with intact kidneys, 100 nmol via tail vein injection, 4 hours or 24 hours): distribution in joint and other cartilage as well as kidneys
Retention and tissue distribution in cartilage (cartilage and kidneys; mouse with intact kidneys, 100 nmol, 24 hours after administration): retention of and the tissue distribution in the cartilage

GSKCRGSRDCLDPCKKAGMRFGKCINSKCHCTP [SEQ ID NO: 27]
Peptide distribution (14C signal) (cartilage): distribution in nasal, spinal, tracheal, and other cartilage
